{"source": "ChEMBL document CHEMBL4376829", "about": "“Discovery and biological evaluation of vinylsulfonamide derivatives as highly potent, covalent TEAD autopalmitoylation inhibitors” (Eur J Med Chem, 2019)", "key": {"[1]": {"molecular_target": "Transcriptional enhancer factor TEF-3 (Homo sapiens, UniProt Q15561)", "assay": "Inhibition of human HEK293T cells derived YAP interaction with N-terminal His-tagged human TEAD4 YBD domain (217 to 434 residues) expressed in Escherichia coli C43 (DE3) cells at 25 to 200 uM incubated for 2 hrs with TEAD4 followed by YAP lysate addition and measured after 4 hrs by immunoblotting analysis"}, "[2]": {"species_on_record": "Homo sapiens", "assay": "Inhibition of recombinant human TEC activated F514V mutant (174 to end residues) at 10 uM using EFPIYDFLPAKKK as substrate measured after 40 mins in presence of [gamm33P]ATP by scintillation counting method relative to control"}, "[3]": {"molecular_target": "Vascular endothelial growth factor receptor 2 (Homo sapiens) (UniProt P35968)", "assay": "Inhibition of recombinant human KDR (790 to end residues) at 10 uM using myelin basic protein as substrate measured after 40 mins in presence of [gamm33P]ATP by scintillation counting method relative to control"}, "[4]": {"molecular_target": "Proto-oncogene tyrosine-protein kinase Src (Homo sapiens) (UniProt P12931)", "assay": "Inhibition of recombinant human Src (1 to 530 residues) at 10 uM using GGEEEEYFELVKKKK as substrate measured after 40 mins in presence of [gamma33P]ATP by scintillation counting method relative to control"}, "[5]": {"molecular_target": "Serine/threonine-protein kinase N2 (Homo sapiens) (UniProt Q16513)", "sequence (Q16513 whole entry, looked up)": "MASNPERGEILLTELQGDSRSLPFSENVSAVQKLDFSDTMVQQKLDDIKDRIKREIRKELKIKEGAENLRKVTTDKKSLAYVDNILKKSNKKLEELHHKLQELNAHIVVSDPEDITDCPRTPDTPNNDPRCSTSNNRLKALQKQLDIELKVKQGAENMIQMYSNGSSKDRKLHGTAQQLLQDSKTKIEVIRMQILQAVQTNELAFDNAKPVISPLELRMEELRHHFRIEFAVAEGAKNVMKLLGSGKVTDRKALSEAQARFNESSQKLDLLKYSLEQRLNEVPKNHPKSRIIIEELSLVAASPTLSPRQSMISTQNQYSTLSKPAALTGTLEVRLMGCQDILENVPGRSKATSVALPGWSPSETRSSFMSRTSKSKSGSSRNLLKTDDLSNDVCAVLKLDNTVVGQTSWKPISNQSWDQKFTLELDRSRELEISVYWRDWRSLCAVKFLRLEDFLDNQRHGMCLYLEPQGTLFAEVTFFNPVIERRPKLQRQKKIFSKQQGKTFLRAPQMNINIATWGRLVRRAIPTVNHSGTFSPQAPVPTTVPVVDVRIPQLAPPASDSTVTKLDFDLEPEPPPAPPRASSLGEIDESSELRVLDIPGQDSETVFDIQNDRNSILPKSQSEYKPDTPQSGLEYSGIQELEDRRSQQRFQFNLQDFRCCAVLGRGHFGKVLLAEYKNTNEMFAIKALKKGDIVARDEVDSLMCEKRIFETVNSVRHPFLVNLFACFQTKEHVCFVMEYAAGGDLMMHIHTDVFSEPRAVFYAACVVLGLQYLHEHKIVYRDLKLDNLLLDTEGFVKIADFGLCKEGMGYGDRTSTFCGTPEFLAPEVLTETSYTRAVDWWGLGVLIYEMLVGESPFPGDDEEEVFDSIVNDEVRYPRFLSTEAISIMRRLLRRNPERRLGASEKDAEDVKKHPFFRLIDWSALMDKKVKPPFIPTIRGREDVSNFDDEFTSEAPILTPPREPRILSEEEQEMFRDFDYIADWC", "assay": "Inhibition of human PRK2 (501 to end residues) at 10 uM using AKRRRLSSLRA as substrate measured after 40 mins in presence of [gamma33P]ATP by scintillation counting method relative to control"}, "[6]": {"test_system": "Serine/threonine-protein kinase N1 (Homo sapiens), Q16512 [V901I]", "assay": "Inhibition of human PRK1 V901I mutant (498 to end residues) at 10 uM using KKLNRTLSFAEPG as substrate measured after 40 mins in presence of [gamma33P]ATP by scintillation counting method relative to control"}, "[7]": {"molecular_target": "Insulin receptor (Homo sapiens) (UniProt P06213)", "assay": "Inhibition of recombinant human IR (1005 to 1310 residues) at 10 uM using KKSRGDYMTMQIG as substrate after 40 mins in presence of [gamma33P]ATP by scintillation counting method relative to control"}, "[8]": {"test_system": "Glycogen synthase kinase-3 beta (Homo sapiens), P49841 [UNDEFINED MUTATION]", "sequence (P49841 whole entry, looked up, stated change not applied)": "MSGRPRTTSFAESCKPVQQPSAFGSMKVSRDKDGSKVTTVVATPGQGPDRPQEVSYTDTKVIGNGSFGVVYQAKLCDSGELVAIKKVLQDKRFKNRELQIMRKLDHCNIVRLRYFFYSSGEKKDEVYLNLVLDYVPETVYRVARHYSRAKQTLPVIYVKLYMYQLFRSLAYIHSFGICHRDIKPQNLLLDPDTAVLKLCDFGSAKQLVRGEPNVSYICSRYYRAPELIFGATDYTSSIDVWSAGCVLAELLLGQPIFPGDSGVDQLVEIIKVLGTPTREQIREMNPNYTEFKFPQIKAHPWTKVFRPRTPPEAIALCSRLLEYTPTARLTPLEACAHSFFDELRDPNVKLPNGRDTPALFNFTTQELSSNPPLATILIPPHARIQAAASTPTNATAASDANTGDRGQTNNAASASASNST", "assay": "Inhibition of recombinant human GSK3beta H350L mutant (2 to end residues) at 10 uM using phospho GS2 peptide as substrate measured after 40 mins in presence of [gamma33P]ATP by scintillation counting method relative to control"}, "[9]": {"molecular_target": "Beta-adrenergic receptor kinase 1 (Homo sapiens) (UniProt P25098)", "sequence (P25098 whole entry)": "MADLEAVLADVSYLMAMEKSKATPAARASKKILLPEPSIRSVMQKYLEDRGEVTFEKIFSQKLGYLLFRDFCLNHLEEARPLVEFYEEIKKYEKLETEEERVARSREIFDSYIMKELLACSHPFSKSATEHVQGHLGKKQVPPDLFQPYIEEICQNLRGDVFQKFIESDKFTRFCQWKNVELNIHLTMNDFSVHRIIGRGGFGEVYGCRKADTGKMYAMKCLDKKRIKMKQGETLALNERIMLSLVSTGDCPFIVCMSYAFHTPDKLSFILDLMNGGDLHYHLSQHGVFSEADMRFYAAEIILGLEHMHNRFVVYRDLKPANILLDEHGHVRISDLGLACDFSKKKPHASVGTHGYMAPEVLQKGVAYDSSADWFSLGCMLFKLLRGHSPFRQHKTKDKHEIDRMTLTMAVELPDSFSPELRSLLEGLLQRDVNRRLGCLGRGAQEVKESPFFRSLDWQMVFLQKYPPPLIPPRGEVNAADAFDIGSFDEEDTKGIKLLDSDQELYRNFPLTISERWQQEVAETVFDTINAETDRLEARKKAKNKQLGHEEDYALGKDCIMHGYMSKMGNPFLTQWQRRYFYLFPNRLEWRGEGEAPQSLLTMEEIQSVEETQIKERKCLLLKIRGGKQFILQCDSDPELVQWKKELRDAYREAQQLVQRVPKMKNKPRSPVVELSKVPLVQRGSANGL", "assay": "Inhibition of full length recombinant human GRK2 at 10 uM using casein as substrate after 40 mins in presence of [gamma33P]ATP by scintillation counting method relative to control"}, "[10]": {"molecular_target": "Macrophage colony-stimulating factor 1 receptor (Homo sapiens) (UniProt P07333)", "sequence (P07333 whole entry)": "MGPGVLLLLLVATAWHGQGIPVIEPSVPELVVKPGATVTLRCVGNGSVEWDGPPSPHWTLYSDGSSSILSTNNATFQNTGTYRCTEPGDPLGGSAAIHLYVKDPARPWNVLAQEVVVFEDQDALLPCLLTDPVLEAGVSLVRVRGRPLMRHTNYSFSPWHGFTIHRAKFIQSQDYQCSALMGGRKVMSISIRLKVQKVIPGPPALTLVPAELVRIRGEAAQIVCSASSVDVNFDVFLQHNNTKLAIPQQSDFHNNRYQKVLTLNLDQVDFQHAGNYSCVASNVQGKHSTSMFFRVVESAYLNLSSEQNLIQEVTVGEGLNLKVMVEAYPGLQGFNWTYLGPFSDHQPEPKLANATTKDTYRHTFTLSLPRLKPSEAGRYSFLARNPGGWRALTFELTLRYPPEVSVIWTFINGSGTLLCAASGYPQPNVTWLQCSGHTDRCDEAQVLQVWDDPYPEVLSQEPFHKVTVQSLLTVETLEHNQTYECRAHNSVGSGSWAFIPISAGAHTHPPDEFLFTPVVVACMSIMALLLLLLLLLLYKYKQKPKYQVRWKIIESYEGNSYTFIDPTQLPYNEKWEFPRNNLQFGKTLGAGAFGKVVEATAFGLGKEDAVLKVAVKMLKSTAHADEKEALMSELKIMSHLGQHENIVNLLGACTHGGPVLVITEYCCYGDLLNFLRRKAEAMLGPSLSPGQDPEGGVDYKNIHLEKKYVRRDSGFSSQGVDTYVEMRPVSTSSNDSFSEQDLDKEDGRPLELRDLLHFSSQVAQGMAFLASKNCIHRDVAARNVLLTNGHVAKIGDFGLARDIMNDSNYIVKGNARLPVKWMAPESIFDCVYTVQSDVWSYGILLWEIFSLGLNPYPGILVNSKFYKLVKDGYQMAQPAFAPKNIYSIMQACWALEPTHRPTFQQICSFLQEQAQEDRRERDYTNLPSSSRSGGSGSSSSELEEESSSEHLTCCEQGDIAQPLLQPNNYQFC", "assay": "Inhibition of recombinant human FMS (538 to end residues) at 10 uM using KKKSPGEYVNIEFG as substrate after 40 mins in presence of [gamma33P]ATP by scintillation counting method relative to control"}, "[11]": {"molecular_target": "Tyrosine-protein kinase Fgr (Homo sapiens) (UniProt P09769)", "assay": "Inhibition of recombinant human FGR (2 to end residues) at 10 uM using poly(Glu, Tyr) 4:1 as substrate after 40 mins in presence of [gamma33P]ATP by scintillation counting method relative to control"}, "[12]": {"molecular_target": "cGMP-dependent protein kinase 1 (Homo sapiens) (UniProt Q13976)", "assay": "Inhibition of full-length recombinant human PKG1alpha at 10 uM using RRRLSFAEPG as substrate after 40 mins by in presence of [gamma33P]ATP by scintillation counting method relative to control"}, "[13]": {"molecular_target": "Fibroblast growth factor receptor 4 (Homo sapiens) (UniProt P22455)", "assay": "Inhibition of recombinant human FGFR4 (442 to 755 residues) at 10 uM using poly(Glu, Tyr) 4:1 as substrate measured after 40 mins in presence of [gamma33P]ATP by scintillation counting method relative to control"}, "[14]": {"molecular_target": "Tyrosine-protein kinase Fer (Homo sapiens) (UniProt P16591)", "sequence (P16591 whole entry, looked up)": "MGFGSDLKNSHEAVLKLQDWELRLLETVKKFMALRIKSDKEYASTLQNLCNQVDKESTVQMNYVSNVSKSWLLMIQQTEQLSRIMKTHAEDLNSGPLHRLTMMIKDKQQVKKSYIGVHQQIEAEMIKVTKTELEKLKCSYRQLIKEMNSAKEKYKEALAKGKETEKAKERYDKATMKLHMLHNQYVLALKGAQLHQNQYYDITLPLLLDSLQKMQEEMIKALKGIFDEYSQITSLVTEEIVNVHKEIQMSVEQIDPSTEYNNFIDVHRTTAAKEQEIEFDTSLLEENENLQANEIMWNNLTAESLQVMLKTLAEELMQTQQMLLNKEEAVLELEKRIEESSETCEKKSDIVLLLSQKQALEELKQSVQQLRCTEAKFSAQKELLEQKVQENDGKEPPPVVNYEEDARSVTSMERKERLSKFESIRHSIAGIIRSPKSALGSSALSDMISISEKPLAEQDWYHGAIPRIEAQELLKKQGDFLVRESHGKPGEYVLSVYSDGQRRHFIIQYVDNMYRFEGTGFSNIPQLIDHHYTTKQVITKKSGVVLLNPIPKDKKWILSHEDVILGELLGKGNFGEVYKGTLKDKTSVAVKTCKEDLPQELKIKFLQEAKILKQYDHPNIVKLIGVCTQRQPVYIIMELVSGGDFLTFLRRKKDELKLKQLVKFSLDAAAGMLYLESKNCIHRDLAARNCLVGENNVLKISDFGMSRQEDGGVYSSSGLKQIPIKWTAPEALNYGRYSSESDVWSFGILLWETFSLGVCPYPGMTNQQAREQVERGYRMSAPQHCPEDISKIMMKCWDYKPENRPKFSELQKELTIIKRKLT", "assay": "Inhibition of recombinant human FER (541 to end residues) at 10 uM using KKKSPGEYVNIEFG as substrate measured after 40 mins in presence of [gamma33P]ATP by scintillation counting method relative to control"}, "[15]": {"molecular_target": "Focal adhesion kinase 1 (Homo sapiens) (UniProt Q05397)", "assay": "Inhibition of recombinant human FAK (411 to 686 residues) at 10 uM using EEEEYEEEEEEYYIIEEEEEEYEEEEEEYYEEEEEEKKKK as substrate measured after 40 mins in presence of [gamma33P]ATP by scintillation counting method relative to control"}, "[16]": {"molecular_target": "Ephrin type-A receptor 5 (Homo sapiens) (UniProt P54756)", "assay": "Inhibition of human EPHA5 (655 to 956 residues) using poly (Glu, Tyr) 4:1 as substrate at 10 uM after 40 mins in presence of [gamma-33P]-ATP by scintillation counting relative to control"}, "[17]": {"molecular_target": "Death-associated protein kinase 2 (Homo sapiens) (UniProt Q9UIK4)", "assay": "Inhibition of full-length recombinant human DAPK2 at 10 uM using calmodulin as substrate after 40 mins by in presence of [gamma33P]ATP by scintillation counting method relative to control"}, "[18]": {"molecular_target": "Serine/threonine-protein kinase PAK 1 (Homo sapiens) (UniProt Q13153)", "assay": "Inhibition of recombinant human PAK1 (150 to end residues) at 10 uM using RRRLSFAEPG as substrate measured after 40 mins in presence of [gamma33P]ATP by scintillation counting method relative to control"}, "[19]": {"molecular_target": "Serine/threonine-protein kinase 4 (Homo sapiens) (UniProt Q13043)", "assay": "Inhibition of recombinant full-length human MST1 at 10 uM using KKSRGDYMTMQIG as substrate measured after 40 mins in presence of [gamma33P]ATP by scintillation counting method relative to control"}, "[20]": {"molecular_target": "Serine/threonine-protein kinase Chk2 (Homo sapiens) (UniProt O96017)", "assay": "Inhibition of recombinant human CHK2 (5 to end residues) at 10 uM using KKKVSRSGLYRSPSMPENLNRPR as substrate measured after 40 mins in presence of [gamma33P]ATP by scintillation counting method relative to control"}, "[21]": {"molecular_target": "Mitogen-activated protein kinase kinase kinase kinase 3 (Homo sapiens) (UniProt Q8IVH8)", "assay": "Inhibition of recombinant human MAP4K3 (1 to 291 residues) at 10 uM using RLGRDKYKTLRQIRQ as substrate measured after 40 mins in presence of [gamma33P]ATP by scintillation counting method relative to control"}, "[22]": {"molecular_target": "Tyrosine-protein kinase ABL2 (Homo sapiens) (UniProt P42684)", "sequence (P42684 whole entry)": "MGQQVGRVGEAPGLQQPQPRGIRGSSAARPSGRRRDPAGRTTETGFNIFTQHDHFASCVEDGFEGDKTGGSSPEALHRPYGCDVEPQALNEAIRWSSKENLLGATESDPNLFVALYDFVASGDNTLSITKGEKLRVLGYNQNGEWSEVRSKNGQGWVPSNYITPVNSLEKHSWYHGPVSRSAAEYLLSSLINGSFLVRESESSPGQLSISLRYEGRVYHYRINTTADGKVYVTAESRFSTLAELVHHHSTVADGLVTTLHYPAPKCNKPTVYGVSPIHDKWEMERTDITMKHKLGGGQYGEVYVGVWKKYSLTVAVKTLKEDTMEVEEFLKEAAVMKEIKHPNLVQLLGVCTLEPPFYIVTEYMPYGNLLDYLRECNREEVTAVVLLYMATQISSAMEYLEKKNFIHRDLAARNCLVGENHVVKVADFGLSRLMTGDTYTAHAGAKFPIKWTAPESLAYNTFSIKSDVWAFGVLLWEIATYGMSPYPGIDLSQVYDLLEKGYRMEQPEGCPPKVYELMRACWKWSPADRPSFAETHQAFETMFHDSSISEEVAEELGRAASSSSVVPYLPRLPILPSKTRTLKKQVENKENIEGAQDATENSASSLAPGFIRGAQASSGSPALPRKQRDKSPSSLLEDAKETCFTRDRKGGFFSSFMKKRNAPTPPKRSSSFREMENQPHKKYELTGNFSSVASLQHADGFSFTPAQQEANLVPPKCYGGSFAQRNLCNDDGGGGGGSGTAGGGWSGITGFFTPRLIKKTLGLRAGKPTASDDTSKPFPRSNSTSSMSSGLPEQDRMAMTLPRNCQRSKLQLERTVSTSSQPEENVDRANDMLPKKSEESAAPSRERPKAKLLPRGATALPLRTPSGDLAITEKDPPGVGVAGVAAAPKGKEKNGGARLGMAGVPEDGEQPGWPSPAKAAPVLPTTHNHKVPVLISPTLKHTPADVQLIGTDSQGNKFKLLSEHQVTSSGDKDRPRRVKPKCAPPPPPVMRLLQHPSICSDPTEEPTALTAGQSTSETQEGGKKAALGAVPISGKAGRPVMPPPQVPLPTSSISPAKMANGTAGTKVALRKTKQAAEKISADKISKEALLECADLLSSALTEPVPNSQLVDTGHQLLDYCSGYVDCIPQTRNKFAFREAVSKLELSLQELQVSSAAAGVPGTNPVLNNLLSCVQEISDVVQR", "assay": "Inhibition of recombinant human ARG (38 to end residues) at 10 uM using EAIYAAPFAKKK as substrate measured after 40 mins in presence of [gamma33P]ATP by scintillation counting method relative to control"}, "[23]": {"molecular_target": "Histone acetyltransferase KAT6A (Homo sapiens) (UniProt Q92794)", "assay": "Inhibition of human MOZ at 10 uM relative to control"}}, "note": "Active and inactive are the calls of the source. The calls are words filed in the database; no cut-off is given here."}
{"smiles": "C=CS(=O)(=O)Nc1ccc(Cc2ccc3ccccc3c2)cc1", "values": [{"measurement": "inhibition", "setting": "[1]", "result": "Active"}, {"measurement": "inhibition", "setting": "[2]", "result": -8, "unit": "%"}, {"measurement": "inhibition", "setting": "[3]", "result": 2, "unit": "%"}, {"measurement": "inhibition", "setting": "[4]", "result": 17, "unit": "%"}, {"measurement": "inhibition", "setting": "[5]", "result": 4, "unit": "%"}, {"measurement": "inhibition", "setting": "[6]", "result": 2, "unit": "%"}, {"measurement": "inhibition", "setting": "[7]", "result": -10, "unit": "%"}, {"measurement": "inhibition", "setting": "[8]", "result": -2, "unit": "%"}, {"measurement": "inhibition", "setting": "[9]", "result": -9, "unit": "%"}, {"measurement": "inhibition", "setting": "[10]", "result": 3, "unit": "%"}, {"measurement": "inhibition", "setting": "[11]", "result": 15, "unit": "%"}, {"measurement": "inhibition", "setting": "[12]", "result": -6, "unit": "%"}, {"measurement": "inhibition", "setting": "[13]", "result": -4, "unit": "%"}, {"measurement": "inhibition", "setting": "[14]", "result": 9, "unit": "%"}, {"measurement": "inhibition", "setting": "[15]", "result": -3, "unit": "%"}, {"measurement": "inhibition", "setting": "[16]", "result": 16, "unit": "%"}, {"measurement": "inhibition", "setting": "[17]", "result": -7, "unit": "%"}, {"measurement": "inhibition", "setting": "[18]", "result": 5, "unit": "%"}, {"measurement": "inhibition", "setting": "[19]", "result": 0, "unit": "%"}, {"measurement": "inhibition", "setting": "[20]", "result": -7, "unit": "%"}, {"measurement": "inhibition", "setting": "[21]", "result": 9, "unit": "%"}, {"measurement": "inhibition", "setting": "[22]", "result": 16, "unit": "%"}, {"measurement": "inhibition", "setting": "[23]", "result": 7, "unit": "%"}]}
